Test results published in patent US20260297083A1, “SUBSTITUTED ACETYLENE COMPOUND DERIVATIVES AND THEIR PHARMACEUTICAL USE” (AVELOS THERAPEUTICS INC., priority 2023, published 2026).

The compounds below were run against T1, Polθ polymerase domain (amino acids 1792-2590) (Homo sapiens, UniProt O75417) (assay: Picogreen assay of Polθ polymerase activity). Details: 12-point concentration response, 90 minutes incubation at room temperature, 8 nM Polθ in 2×polymerase mixture, read-out: PolQ IC50.
T1 construct: 10×Histidine-SUMO (N, cleaved yes); made in house; host or cells: E. coli
T1 sequence (O75417 1792-2590): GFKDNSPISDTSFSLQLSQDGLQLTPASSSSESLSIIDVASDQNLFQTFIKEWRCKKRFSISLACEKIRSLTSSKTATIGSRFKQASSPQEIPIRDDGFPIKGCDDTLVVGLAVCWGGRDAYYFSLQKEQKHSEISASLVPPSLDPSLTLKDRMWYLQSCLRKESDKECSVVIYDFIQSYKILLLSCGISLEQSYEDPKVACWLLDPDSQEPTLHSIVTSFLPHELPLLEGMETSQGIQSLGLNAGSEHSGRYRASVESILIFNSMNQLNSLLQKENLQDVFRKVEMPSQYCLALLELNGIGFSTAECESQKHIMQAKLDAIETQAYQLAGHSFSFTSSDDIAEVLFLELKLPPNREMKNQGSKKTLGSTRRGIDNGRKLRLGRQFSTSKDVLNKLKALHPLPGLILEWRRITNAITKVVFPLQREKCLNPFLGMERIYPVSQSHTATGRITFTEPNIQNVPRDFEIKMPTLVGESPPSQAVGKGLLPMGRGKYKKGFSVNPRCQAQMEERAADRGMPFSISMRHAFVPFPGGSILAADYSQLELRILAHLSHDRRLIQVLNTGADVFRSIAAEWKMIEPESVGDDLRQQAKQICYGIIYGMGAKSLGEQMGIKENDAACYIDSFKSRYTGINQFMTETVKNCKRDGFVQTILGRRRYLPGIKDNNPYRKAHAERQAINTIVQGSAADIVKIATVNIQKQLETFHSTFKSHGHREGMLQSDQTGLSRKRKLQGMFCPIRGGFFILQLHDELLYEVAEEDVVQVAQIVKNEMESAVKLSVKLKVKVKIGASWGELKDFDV
Assay type: biochemical
Procedure, shortened: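 E. coli-expressed polymerase domain with His-SUMO tag removed; 2× enzyme mix (8 nM) combined with 2× substrate mix (100 nM annealed primer/template DNA, 40 uM dNTPs). Buffer 25 mM Tris-HCl pH 7.5, 12.5 mM NaCl, 0.5 mM MgCl2, 1 mM DTT. Reaction 90 min at room temperature, then EDTA/Picogreen stain read at 485/520 nm; 12-point IC50.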

Row | Compound | IC50 [nM]
1 | Cc1cc(C(F)(F)F)cc(N2[C@@H](C(=O)N(CC#Cc3cnc(N)cn3)c3ccc(F)c(C)c3F)CCS2(=O)=O)n1 [compound 31] | > 101
2 | Cc1cc(C(F)(F)F)cc(N2[C@H](C(=O)N(CC#Cc3cnc(S(N)(=O)=O)cn3)c3ccc(F)c(C)c3)CCS2(=O)=O)n1 [compound 65] | > 101
3 | Cc1cc(C(F)(F)F)cc(N2[C@H](C(=O)N(CC#Cc3ccc(Cc4cnc5ccc(=O)[nH]c5c4)nc3)c3ccc(F)c(C)c3)CCS2(=O)=O)n1 [compound 134] | 1 to 50
4 | Cc1cc(C(F)(F)F)cc(N2[C@H](C(=O)N(CC#Cc3cnc(C(N)=O)cn3)c3ccc(F)c(C)c3)CCS2(=O)=O)n1 [compound 61] | > 101
5 | Cc1cc(C(F)(F)F)cc(N2[C@H](C(=O)N(CC#Cc3ccc(C(=O)N(C)C)nc3)c3ccc(F)c(C)c3)CCS2(=O)=O)n1 [compound 111] | 1 to 50
6 | Cc1cc(C(F)(F)F)cc(N2[C@H](C(=O)N(CC#Cc3ccc(OC(F)F)nn3)c3ccc(F)c(C)c3)CCS2(=O)=O)n1 [compound 28] | 1 to 50
7 | Cc1cc(C(F)(F)F)cc(N2C(=O)CC[C@H]2C(=O)N(CC#Cc2cnc(N3CCOCC3)cn2)c2ccc(F)c(C)c2)n1 [compound 10] | 1 to 50
8 | C=CC(=O)Nc1cccc(C#CCN(C(=O)[C@@H]2CCS(=O)(=O)N2c2cc(C(F)(F)F)cc(C)n2)c2ccc(F)c(C)c2)n1 [compound 137, (S)-N-(3-(6-acrylamidopyridin-2-yl)prop-2-yn-1-yl)-N-(4-fluoro-3-methylphenyl)-2-(6-methyl-4-(trifluoromethyl)pyridin-2-yl)isothiazolidine-3-carboxamide 1,1-dioxide] | 1 to 50
9 | C=CC(=O)Nc1cccnc1C#CCN(C(=O)[C@@H]1CCS(=O)(=O)N1c1cc(C(F)(F)F)cc(C)n1)c1ccc(F)c(C)c1 [compound 142, (S)-N-(3-(3-acrylamidopyridin-2-yl)prop-2-yn-1-yl)-N-(4-fluoro-3-methylphenyl)-2-(6-methyl-4-(trifluoromethyl)pyridin-2-yl)isothiazolidine-3-carboxamide 1,1-dioxide] | 1 to 50
10 | Cc1cc(C(F)(F)F)cc(N2C(=O)CC[C@H]2C(=O)N(CC#Cc2cnc(N)cn2)c2ccc(F)c(C)c2)n1 [compound 6] | 1 to 50
11 | Cc1cc(C(F)(F)F)cc(N2[C@H](C(=O)N(CC#Cc3cc(C)c(N)c(C)n3)c3ccc(F)c(C)c3)CCS2(=O)=O)n1 [compound 91] | 1 to 50
12 | Cc1cc(C(F)(F)F)cc(N2[C@H](C(=O)N(CC#Cc3cnc(N4CCOCC4)cn3)c3ccc(F)c(C)c3)CCS2(=O)=O)n1 [compound 39] | 1 to 50
13 | Cc1cc(C(F)(F)F)cc(N2[C@H](C(=O)N(CC#Cc3ccc(NC(C)C)nn3)c3ccc(F)c(C)c3F)CCS2(=O)=O)n1 [compound 21] | 1 to 50
14 | Cc1cc(C(F)(F)F)cc(N2[C@H](C(=O)N(CC#Cc3cccc(OC(C)C)n3)c3ccc(F)c(C)c3)CCS2(=O)=O)n1 [compound 88] | > 101

Continued, values first:

Row | IC50 [nM] | Compound
15 | 1 to 50 | Cc1cc(C(F)(F)F)cc(N2[C@H](C(=O)N(CC#Cc3ccc(C(N)=O)cn3)c3ccc(F)c(C)c3)CCS2(=O)=O)n1 [compound 97]
16 | 1 to 50 | Cc1cc(C(F)(F)F)cc(N2[C@H](C(=O)N(CC#Cc3ccc(N4CCOCC4)nn3)c3ccc(F)c(C)c3)CCS2(=O)=O)n1 [compound 23]
17 | 1 to 50 | Cc1cc(C(F)(F)F)cc(N2[C@H](C(=O)N(CC#Cc3cnc(N4C[C@H](C)N(C(C)C)[C@@H](C)C4)cn3)c3ccc(F)c(C)c3)CCS2(=O)=O)n1 [compound 53]
18 | 51 to 100 | Cc1cc(C(F)(F)F)cc(N2[C@H](C(=O)N(CC#Cc3n[nH]c(=O)c4ccccc34)c3ccc(F)c(C)c3)CCS2(=O)=O)n1 [compound 101]
19 | 1 to 50 | Cc1cc(C(F)(F)F)cc(N2[C@H](C(=O)N(CC#Cc3cnc(NC(C)C)cn3)c3ccc(F)c(C)c3)CCS2(=O)=O)n1 [compound 36]
20 | 1 to 50 | Cc1ccc(F)c(N(CC#Cc2cnc(N)cn2)C(=O)[C@@H]2CCS(=O)(=O)N2c2cc(C(F)(F)F)cc(C)n2)c1 [compound 33]
21 | 1 to 50 | Cc1cc(C(F)(F)F)cc(N2[C@H](C(=O)N(CC#Cc3cnc(N4[C@H](C)CN(C(C)C)C[C@H]4C)cn3)c3ccc(F)c(C)c3)CCS2(=O)=O)n1 [compound 55]
22 | 1 to 50 | Cc1cc(C(F)(F)F)cc(N2[C@H](C(=O)N(CC#Cc3cnc4c(c3)C(C)(C)N(C)C4=O)c3ccc(F)c(C)c3)CCS2(=O)=O)n1 [compound 99]
23 | 1 to 50 | CCN1CCN(c2cnc(C#CCN(C(=O)[C@@H]3CCC(=O)N3c3cc(C(F)(F)F)cc(C)n3)c3ccc(F)c(C)c3)cn2)CC1 [compound 11]
24 | 51 to 100 | Cc1cc(C(F)(F)F)cc(N2[C@H](C(=O)N(CC#Cc3ncc(C(=O)N4CCOCC4)cn3)c3ccc(F)c(C)c3)CCS2(=O)=O)n1 [compound 82]
25 | > 101 | Cc1cc(C(F)(F)F)cc(N2[C@H](C(=O)N(CC#Cc3cnc(C#N)cn3)c3ccc(F)c(C)c3)CCS2(=O)=O)n1 [compound 59]
26 | 1 to 50 | Cc1cc(C(F)(F)F)cc(N2[C@H](C(=O)N(CC#Cc3ncc(N4CCOCC4)nc3N)c3ccc(F)c(C)c3)CCS2(=O)=O)n1 [compound 43]
27 | 1 to 50 | Cc1cc(C(F)(F)F)cc(N2[C@H](C(=O)N(CC#Cc3ccc(N4CCOCC4)cn3)c3ccc(F)c(C)c3)CCS2(=O)=O)n1 [compound 84]
28 | 51 to 100 | Cc1cccc(N(CC#Cc2cnc(N)cn2)C(=O)[C@@H]2CN(C)S(=O)(=O)N2c2cc(C(F)(F)F)cc(C)n2)c1 [compound 108]
29 | 1 to 50 | Cc1cc(C(F)(F)F)cc(N2C(=O)CC[C@H]2C(=O)N(CC#CCN2CCN(c3cnccn3)CC2)c2ccc(F)c(C)c2F)n1 [compound 15]
30 | 51 to 100 | C=CC(=O)Nc1ccncc1C#CCN(C(=O)[C@@H]1CCS(=O)(=O)N1c1cc(C(F)(F)F)cc(C)n1)c1ccc(F)c(C)c1 [compound 143, (S)-N-(3-(4-acrylamidopyridin-3-yl)prop-2-yn-1-yl)-N-(4-fluoro-3-methylphenyl)-2-(6-methyl-4-(trifluoromethyl)pyridin-2-yl)isothiazolidine-3-carboxamide 1,1-dioxide]
31 | 1 to 50 | Cc1cc(C(F)(F)F)cc(N2[C@H](C(=O)N(CC#Cc3cnc(C(N)=O)nc3)c3ccc(F)c(C)c3)CCS2(=O)=O)n1 [compound 78]
32 | 1 to 50 | Cc1cc(C(F)(F)F)cc(N2[C@H](C(=O)N(CC#Cc3cnc(N4CCOCC4)c(N)n3)c3ccc(F)c(C)c3)CCS2(=O)=O)n1 [compound 44]
33 | 1 to 50 | Cc1cc(C(F)(F)F)cc(N2[C@H](C(=O)N(CC#Cc3ccc(C(N)=O)nc3)c3ccc(F)c(C)c3)CC3(CC3)S2(=O)=O)n1 [compound 145, (S)—N-(3-(6-carbamoylpyridin-3-yl)prop-2-yn-1-yl)-N-(4-fluoro-3-methylphenyl)-5-(6-methyl-4-(trifluoromethyl)pyridin-2-yl)-4-thia-5-azaspiro [2,4]heptane-6-carboxamide 4,4-dioxide]
34 | 1 to 50 | CCN1CCN(c2cnc(C#CCN(C(=O)[C@@H]3CCS(=O)(=O)N3c3cc(C(F)(F)F)cc(C)n3)c3ccc(F)c(C)c3)cn2)CC1 [compound 50]

These compounds were tested on DLD-1 BRCA2(−/−) Cell (assay: Cell viability assay (Resazurin) in DLD1-BRCA2 cells). Details: Homo sapiens, DLD-1, 336 h, 14 days, 1,500 cells/well, final DMSO 1%.
Assay type: cell-based
Experimental: DLD1-BRCA2 KG (Horizon Discovery, Cat #HD 105-007) cells and DLD1-parental cells were maintained in culture media (RPMI-1640 including 2 mM L-glutamin and 25 mM sodium bicarbonate, supplemented with 10% FBS), at 37° C. in a humidified atmosphere with 5% CO2. Cells were seeded at the final concentration of 1,500 cells/well (DLD1-BRCA2 KG) and 600 cells/well (DLD1-parental) in a 96-well plate. Four hours later, test compounds were added (the final concentration of DMSO was 1%) to the cells and media were replaced every 3-4 days for 14 days. To measure viability, cells were incubated in culture media supplemented with 0.1 mg/ml of Resazurin (Merck, Cat #R7017) for 4 hours. The fluorescence was measured at Ex/Em=560 nm/590 nm using EnSight multimode plate reader (Perkin Elmer). Data analysis and IC50 calculation was done using GraphPad Prism (Version 10.0.2).

Row | IC50 [nM] | Compound
35 | < 1000 | Cc1cc(C(F)(F)F)cc(N2[C@H](C(=O)N(CC#Cc3cnc(N)cn3)c3ccc(F)c(C)c3F)CCS2(=O)=O)n1 [Example 17, (S)—N-(3-(5-aminopyrazin-2-yl)prop-2-yn-1-yl)-N-(2,4-difluoro-3-methylphenyl)-2-(6-methyl-4-(trifluoromethyl)pyridin-2-yl)isothiazolidine-3-carboxamide 1,1-dioxide]
36 | < 1000 | Cc1cc(C(F)(F)F)cc(N2[C@H](C(=O)N(CC#Cc3cnc(N4CCOCC4)nc3)c3ccc(F)c(C)c3)CCS2(=O)=O)n1 [Example 77, (S)-N-(4-fluoro-3-methylphenyl)-2-(6-methyl-4-(trifluoromethyl)pyridin-2-yl)-N-(3-(2-morpholinopyrimidin-5-yl)prop-2-yn-1-yl)isothiazolidine-3-carboxamide 1,1-dioxide]
